Data published in publication PMC6934184, “Selective DNA-PKcs inhibition extends the therapeutic index of localized radiotherapy and chemotherapy” (The Journal of Clinical Investigation, 2019).

Target: T1, LRRK2 (Homo sapiens, UniProt Q5S007)
T1 construct: purchased Thermo Fisher Scientific (Life Technologies) SelectScreen
Test: SelectScreen Adapta
Format: biochemical
Method in brief: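 SelectScreen broad panel; activity (Z'LYTE, Adapta) plus binding formats. ATP: Km app for CSF1R Z'LYTE; 10 for CAMK1 Adapta. Readout = % per kinase.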

T1 sequence (Q5S007 whole entry): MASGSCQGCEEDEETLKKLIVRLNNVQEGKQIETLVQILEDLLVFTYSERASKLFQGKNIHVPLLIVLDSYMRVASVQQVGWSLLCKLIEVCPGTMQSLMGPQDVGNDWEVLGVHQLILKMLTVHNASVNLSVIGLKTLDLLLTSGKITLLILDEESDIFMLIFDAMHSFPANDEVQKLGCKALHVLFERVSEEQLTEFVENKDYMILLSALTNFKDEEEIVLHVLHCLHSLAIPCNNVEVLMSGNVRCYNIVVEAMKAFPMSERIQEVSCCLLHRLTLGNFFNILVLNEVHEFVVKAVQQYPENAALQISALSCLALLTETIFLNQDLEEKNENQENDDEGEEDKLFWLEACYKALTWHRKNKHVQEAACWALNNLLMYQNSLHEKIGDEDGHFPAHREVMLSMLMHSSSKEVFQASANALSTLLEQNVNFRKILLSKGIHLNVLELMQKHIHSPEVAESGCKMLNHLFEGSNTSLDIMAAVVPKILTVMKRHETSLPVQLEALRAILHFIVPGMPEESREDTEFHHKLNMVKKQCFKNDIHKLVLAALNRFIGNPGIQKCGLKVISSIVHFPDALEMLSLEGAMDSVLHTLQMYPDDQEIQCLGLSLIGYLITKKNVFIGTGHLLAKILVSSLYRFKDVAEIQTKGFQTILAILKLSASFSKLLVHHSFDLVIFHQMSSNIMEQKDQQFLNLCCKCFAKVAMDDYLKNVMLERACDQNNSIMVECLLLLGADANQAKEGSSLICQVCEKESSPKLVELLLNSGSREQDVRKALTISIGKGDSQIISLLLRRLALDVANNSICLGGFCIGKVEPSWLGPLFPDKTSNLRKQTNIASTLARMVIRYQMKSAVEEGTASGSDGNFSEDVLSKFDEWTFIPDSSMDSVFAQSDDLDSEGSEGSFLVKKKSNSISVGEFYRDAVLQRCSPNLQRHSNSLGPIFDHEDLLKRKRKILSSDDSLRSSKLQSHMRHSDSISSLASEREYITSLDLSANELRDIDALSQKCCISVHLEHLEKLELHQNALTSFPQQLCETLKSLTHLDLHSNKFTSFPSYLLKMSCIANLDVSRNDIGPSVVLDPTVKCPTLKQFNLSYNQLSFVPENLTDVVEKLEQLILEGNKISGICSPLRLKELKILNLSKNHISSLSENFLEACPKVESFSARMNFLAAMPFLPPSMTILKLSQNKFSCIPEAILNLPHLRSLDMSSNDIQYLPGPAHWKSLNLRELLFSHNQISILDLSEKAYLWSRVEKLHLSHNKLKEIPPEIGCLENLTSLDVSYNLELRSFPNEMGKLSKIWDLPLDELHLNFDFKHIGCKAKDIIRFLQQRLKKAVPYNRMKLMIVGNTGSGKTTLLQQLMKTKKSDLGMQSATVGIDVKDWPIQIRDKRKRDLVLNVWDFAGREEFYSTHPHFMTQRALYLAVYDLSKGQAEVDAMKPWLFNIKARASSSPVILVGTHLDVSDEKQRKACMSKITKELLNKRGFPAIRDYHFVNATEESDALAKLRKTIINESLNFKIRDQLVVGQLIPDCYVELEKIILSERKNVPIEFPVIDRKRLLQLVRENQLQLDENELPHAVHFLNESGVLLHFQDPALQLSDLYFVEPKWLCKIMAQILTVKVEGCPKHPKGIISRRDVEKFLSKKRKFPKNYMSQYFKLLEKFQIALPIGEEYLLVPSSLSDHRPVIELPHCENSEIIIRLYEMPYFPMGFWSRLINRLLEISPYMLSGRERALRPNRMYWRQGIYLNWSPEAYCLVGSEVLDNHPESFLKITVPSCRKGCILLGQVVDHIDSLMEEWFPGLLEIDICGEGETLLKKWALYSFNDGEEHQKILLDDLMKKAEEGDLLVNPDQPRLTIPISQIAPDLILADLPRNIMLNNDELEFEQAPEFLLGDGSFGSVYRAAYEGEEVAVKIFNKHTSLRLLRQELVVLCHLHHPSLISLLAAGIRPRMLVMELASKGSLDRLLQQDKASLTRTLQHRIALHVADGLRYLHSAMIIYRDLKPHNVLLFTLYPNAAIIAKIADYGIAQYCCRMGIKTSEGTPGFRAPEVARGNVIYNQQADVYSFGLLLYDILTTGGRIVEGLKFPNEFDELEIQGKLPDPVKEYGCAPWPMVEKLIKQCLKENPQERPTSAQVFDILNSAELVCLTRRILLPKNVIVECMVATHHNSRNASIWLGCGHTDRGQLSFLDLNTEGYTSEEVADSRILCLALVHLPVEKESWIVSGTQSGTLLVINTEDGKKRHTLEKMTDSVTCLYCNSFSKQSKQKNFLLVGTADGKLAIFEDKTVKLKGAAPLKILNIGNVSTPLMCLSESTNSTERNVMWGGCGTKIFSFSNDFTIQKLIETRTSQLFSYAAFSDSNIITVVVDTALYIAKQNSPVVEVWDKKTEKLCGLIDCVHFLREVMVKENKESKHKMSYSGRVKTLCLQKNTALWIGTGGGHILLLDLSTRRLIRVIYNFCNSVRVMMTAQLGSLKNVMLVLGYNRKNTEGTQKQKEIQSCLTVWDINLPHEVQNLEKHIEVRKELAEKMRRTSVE

In the case of `CN(C(=O)CN1CCOCC1)c1ccc2sc3c(-c4cccc5c(=O)cc(N6CC7CCC(C6)O7)oc45)cccc3c2c1` [NU5455], the inhibition at 1 µM is reported as 1.7%.
